In the NIST ThermoML archive (doi:10.1016/j.jct.2018.09.027):

Experiment: molar heat capacity at constant pressure
Settings: 100 kPa, Crystal, DSC

O=C(O)c1cc(O)c(O)c(O)c1 [3,4,5-trihydroxybenzoic acid]
Settings	molar heat capacity at constant pressure [J/K/mol]
263.15 K	178.8
264.15 K	179.31
265.15 K	179.82
266.15 K	180.5
267.15 K	181.18
268.15 K	181.86
269.15 K	182.54
270.15 K	183.05
271.15 K	183.73
272.15 K	184.41
273.15 K	184.92
274.15 K	185.77
275.15 K	185.6
276.15 K	186.96
277.15 K	187.3
278.15 K	188.15
279.15 K	188.49
280.15 K	189
281.15 K	189.34
282.15 K	189.85
283.15 K	190.36
284.15 K	191.21
285.15 K	191.55
286.15 K	192.24
287.15 K	193.09
288.15 K	193.6
289.15 K	194.28
290.15 K	194.79
291.15 K	195.64
292.15 K	196.32
293.15 K	197
294.15 K	197.51
295.15 K	198.19
296.15 K	198.7
297.15 K	199.38
298.15 K	199.55
299.15 K	200.06
300.15 K	200.57
301.15 K	201.25
302.15 K	201.76
303.15 K	202.44
304.15 K	203.12
305.15 K	203.8
306.15 K	204.31
307.15 K	204.65
308.15 K	205.33
309.15 K	206.18
310.15 K	206.7
311.15 K	207.04
312.15 K	207.38
313.15 K	208.23
314.15 K	208.91
315.15 K	209.08
316.15 K	209.76
317.15 K	210.61
318.15 K	211.12
319.15 K	211.46
320.15 K	211.8
321.15 K	212.14
322.15 K	212.99
323.15 K	211.97
324.15 K	212.22
325.15 K	212.9
326.15 K	213.59
327.15 K	214.27
328.15 K	214.61
329.15 K	215.09
330.15 K	215.6
331.15 K	216.11
332.15 K	216.39
333.15 K	216.9
334.15 K	217.47
335.15 K	217.92
336.15 K	217.16
337.15 K	217.71
338.15 K	218.35
339.15 K	218.99
340.15 K	219.58
341.15 K	220.09
342.15 K	220.69
343.15 K	221.58
344.15 K	220.47
345.15 K	220.64
346.15 K	221.55
347.15 K	222.29
348.15 K	222.74
349.15 K	223.31
350.15 K	223.76
351.15 K	224.44
352.15 K	225.58
353.15 K	224.69
354.15 K	225.11
355.15 K	225.75
356.15 K	226.47
357.15 K	226.9
358.15 K	227.28
359.15 K	227.92
360.15 K	228.68
361.15 K	229.15
362.15 K	229.7
363.15 K	229.83
364.15 K	230.21
365.15 K	230.81
366.15 K	231.19
